20 compounds from ChEMBL document CHEMBL5543157, “Lead Optimization of Butyrolactone I as an Orally Bioavailable Antiallergic Agent Targeting FcγRIIB” (J Med Chem, 2024) can be followed below.

Data set [1] relates to RBL-2H3. The experiment in a line: Antiallergic activity in rat RBL-2H3 cell model assessed as inhibition rate of IgE-mediated degranulation in by measuring […] at 50 uM relative to control. In kind it is functional.
Data set [2] relates to RBL-2H3. The experiment in a line: Antiallergic activity in rat RBL-2H3 cell model assessed as inhibition rate of IgE-mediated degranulation in by measuring […]. Format: functional, cell-based.
Data set [3] is described as follows: Metabolic stability in human liver microsmes assessed as half life in presence of UDPGA measured upto 60 mins by HPLC analysis. In kind it is ADME. The note with it: liver microsomes. Background: Liver microsomes are a subcellular fraction often used to study metabolism.
Data set [4] concerns Mus musculus. The experiment in a line: Antiallergic activity against ovalbumin-sensitized food allergic Balb/c mouse model assessed as suppression of intestinal edema by measuring reduced intestinal damage at 10 mg/kg once a day during OVA challenge phase (days 28 to 40) administered by intragastric. Format: functional, organism-based. Conditions: route ig, time 13.0 day.
Data set [5] is described as follows: Clearance in Sprague-Dawley rat at 10 mg/kg, iv measured upto 12 hrs by mass spectrometry. Format: ADME, organism-based. Conditions: in vivo.
The nature of data set [6]: AUC (0 to infinity) in Sprague-Dawley rat at 40 mg/kg, po measured upto 12 hrs by mass spectrometry. Format: ADME, organism-based. The note with it: in vivo.
The subject of data set [7] is Mus musculus. Put plainly: Antiallergic activity against ovalbumin-sensitized food allergic Balb/c mouse model assessed as decrease in mMCP-1 level at 2.5 to 10 mg/kg treated once a day during OVA challenge phase (days 28 to 40) administered by intragastric. Format: functional, organism-based. Conditions: dose 2.5-10 mg/kg, route ig, time 13.0 day.
Data set [8] in a line: Half life in Sprague-Dawley rat at 10 mg/kg, iv measured upto 12 hrs by mass spectrometry. Format: ADME, organism-based. Conditions: in vivo.
Data set [9] in a line: AUC (0 to 12 hrs) in Sprague-Dawley rat at 40 mg/kg, po measured upto 12 hrs by mass spectrometry. In kind it is ADME, organism-based. The note with it: in vivo.
Data set [10] can be described thus: AUC (0 to infinity) in Sprague-Dawley rat at 10 mg/kg, iv measured upto 12 hrs by mass spectrometry. In kind it is ADME, organism-based. Conditions: in vivo.
Data set [11] has as its system Mus musculus. The experiment in a line: Antiallergic activity against ovalbumin-sensitized food allergic Balb/c mouse model assessed as suppression of spleen enlargement at 10 mg/kg once a day during OVA challenge phase (days 28 to 40) administered by intragastric. Format: functional, organism-based. The note with it: route ig, time 13.0 day.
Data set [12] in a line: Cmax in Sprague-Dawley rat at 40 mg/kg, po measured upto 12 hrs by mass spectrometry. Format: ADME, organism-based. Conditions: in vivo.
Data set [13] relates to Mus musculus. Put plainly: Antiallergic activity against ovalbumin-sensitized food allergic Balb/c mouse model assessed as decrease in histamine level at 2.5 to 10 mg/kg treated once a day during OVA challenge phase (days 28 to 40) administered by intragastric. In kind it is functional, organism-based. The note with it: dose 2.5-10 mg/kg, route ig, time 13.0 day.
Data set [14] concerns Mus musculus. Put plainly: Antiallergic activity against ovalbumin-sensitized food allergic Balb/c mouse model assessed as decrease in IFN-gamma level at 10 mg/kg treated once a day during OVA challenge phase (days 28 to 40) administered by intragastric. The note with it: route ig, time 13.0 day. In kind it is functional, organism-based.
Data set [15] is described as follows: Tmax in Sprague-Dawley rat at 40 mg/kg, po measured upto 12 hrs by mass spectrometry. In kind it is ADME, organism-based. The note with it: in vivo.
Data set [16] deals with Mus musculus. The experiment in a line: Antiallergic activity against ovalbumin-sensitized food allergic Balb/c mouse model assessed as decrease in OVA-specific IgE level treated once a day during OVA challenge phase (days 28 to 40) administered by intragastric. Conditions: dose 2.5-10 mg/kg, route ig, time 13.0 day. Format: functional, organism-based.
The nature of data set [17]: Half life in Sprague-Dawley rat at 40 mg/kg, po measured upto 12 hrs by mass spectrometry. Format: ADME, organism-based. The note with it: in vivo.
Data set [18] concerns Mus musculus. The experiment in a line: Antiallergic activity against passive cutaneous anaphylaxis (PCA) reaction BALB/c mouse model assessed as reduction in BSA/IgE-mediated allergic reaction in ear by measuring extravasation of Evans blue dye pretreated IG for 7 days followed administered with anti-DNP-IgE after 24 hrs treated with DNP-BSA by Evans blue dye based microscopic analysis. In kind it is functional, organism-based. Conditions: dose 2.5-10 mg/kg, time 8.0 day.

Data set [19] is described as follows: Clearance in Sprague-Dawley rat at 40 mg/kg, po measured upto 12 hrs by mass spectrometry. In kind it is ADME, organism-based. Conditions: in vivo.
The subject of data set [20] is Mus musculus. Put plainly: Antiallergic activity against ovalbumin-sensitized food allergic Balb/c mouse model assessed as decrease in IL-4 level at 10 mg/kg treated once a day during OVA challenge phase (days 28 to 40) administered by intragastric. Format: functional, organism-based. The note with it: route ig, time 13.0 day.
Data set [21] can be described thus: Oral bioavailability in Sprague-Dawley rat at 40 mg/kg measured upto 12 hrs by mass spectrometry. In kind it is ADME, organism-based. The note with it: in vivo.
In data set [22] the test system is Mus musculus. Put plainly: Antiallergic activity against ovalbumin-sensitized food allergic Balb/c mouse model assessed as decrease in OVA-specific IgG1 level treated once a day during OVA challenge phase (days 28 to 40) administered by intragastric. The note with it: dose 2.5-10 mg/kg, route ig, time 13.0 day. In kind it is functional, organism-based.
A short description of data set [23]: AUC (0 to 12 hrs) in Sprague-Dawley rat at 10 mg/kg, iv measured upto 12 hrs by mass spectrometry. Format: ADME, organism-based. Conditions: in vivo.
Data set [24] can be described thus: Metabolic stability in human liver microsmes assessed as half life in presence of NADPH measured upto 60 mins by HPLC analysis. Format: ADME. The note with it: liver microsomes.
Data set [25] is described as follows: Metabolic stability in human liver microsmes assessed as half life measured upto 60 mins by HPLC analysis. Format: ADME. Conditions: liver microsomes.
Data set [26] concerns Mus musculus. Put plainly: Antiallergic activity against ovalbumin-sensitized food allergic Balb/c mouse model assessed as decrease in OVA-specific IgG2a level at 2.5 to 10 mg/kg treated once a day during OVA challenge phase (days 28 to 40) administered by intragastric. Conditions: dose 2.5-10 mg/kg, route ig, time 13.0 day. In kind it is functional, organism-based.
The test system of data set [27] is RBL-2H3. Put plainly: Cytotoxicity against rat RBL-2H3 cells assessed as cell viability at 5 to 100 uM incubated for 24 hrs by CCK8- assay. In kind it is toxicity, cell-based. The note with it: rbl-2h3, 24 h, dose 5-100 µM.

Activity calls are given as the source filed them. The rule behind the calls is not given here.

Regarding `COC(=O)[C@]1(Cc2ccc(OCC=C(C)C)c(CC=C(C)C)c2)OC(=O)C(OCC=C(C)C)=C1c1ccc(OCC=C(C)C)cc1`, in the data set on RBL-2H3 [1], the inhibition – broadly, the drop in the measured response relative to a control, in per cent – at 50 µM came out at 15.6%.
Still for that read-out and setting: to `COC(=O)[C@]1(Cc2ccc(O)c(CC=C(C)C)c2)OC(=O)C(OC(=O)C(C)C)=C1c1ccc(O)cc1` belongs 36.7%.
For `CC(C)=CCc1cc(C[C@@]2(CO)OC(=O)C(O)=C2c2ccc(O)cc2)ccc1O`, in the data set with RBL-2H3 [1], the inhibition result was “inactive” and the inhibition at 50 µM was found to be 27.7%.
In the case of `CN1CCC(=C2c3ccccc3CC(=O)c3sccc32)CC1` [KETOTIFEN], the IC50 (as a rule, the concentration that gives 50% inhibition) with RBL-2H3 [2] stood at 27.9 µM.
Consider `COC(=O)[C@]1(Cc2ccc(OC(C)=O)c(CC=C(C)C)c2)OC(=O)C(OC(C)=O)=C1c1ccc(O)cc1`, for which the inhibition at 50 µM with RBL-2H3 [1] was found to be 27.8%.
On the same count and under the same terms, as for `COC(=O)[C@]1(Cc2ccc(O)c(CCC(C)C)c2)OC(=O)C(O)=C1c1ccc(O)cc1`, the figure is 47.9%.
Still for that read-out and setting: as for `COC(=O)[C@]1(Cc2ccc(OC(=O)C(C)C)c(CC=C(C)C)c2)OC(=O)C(OC(=O)C(C)C)=C1c1ccc(OC(=O)C(C)C)cc1`, the figure is 6.93%; as for `COC(=O)[C@]1(Cc2ccc(O)c(CC=C(C)C)c2)OC(=O)C(OC)=C1c1ccc(OC)cc1`, 17.1%.
Still for that read-out and setting: to `COC(=O)[C@]1(Cc2ccc(OC)c(CC=C(C)C)c2)OC(=O)C(OC)=C1c1ccc(OC)cc1` belongs 38.7%.
Turning to `CC(=O)[C@]1(Cc2ccc(O)c(CC=C(C)C)c2)OC(=O)C(O)=C1c1ccc(O)cc1`, the half-life – broadly, the time in which the quantity being followed falls by half – in data set [3] was 133 min; in [8], 132 min; in data set [17] it was 246 min; in [24], 224 min; in data set [25], 533 min. Besides, the result in the data set with Mus musculus [4], in the data set on Mus musculus [7], in the data set with Mus musculus [11], in the data set with Mus musculus [13], in the data set with Mus musculus [14] and with Mus musculus [20] was Active. Further, the clearance (as a rule, the rate of elimination divided by the concentration) in [5] (Sprague-Dawley) was 45 mL/min/kg. Also, the figures for the AUC(0-inf) in [6] and in data set [10] were 7560 ng·h/mL and 4120 ng·h/mL, respectively. Moreover, the AUC(0-t) (commonly exposure summed from dosing to a finite time, without extrapolation to infinity) at 12 h in data set [9] is 6540 ng·h/mL; in [23], 4090 ng·h/mL. The IC50 with RBL-2H3 [2] stood at 6.7 µM. Further, in the data set with RBL-2H3 [2], the inhibition result is “Dose-Dependent Effect”. Further, the Cmax (as a rule, the peak of the concentration-time curve) in data set [12] was found to be 6110 ng/mL. Besides, the Tmax (commonly the time from dosing to the highest level) in [15] was found to be 12 min. In addition, the inhibition at 50 µM in the data set with RBL-2H3 [1] is more than 90%. The Activity result was “Dose-Dependent Effect” with Mus musculus [16], “Dose-Dependent Effect” in the data set with Mus musculus [18], “Dose-Dependent Effect” with Mus musculus [22] and “Non-Toxic” in the data set with RBL-2H3 [27]. For the same compound, the CL/F (as a rule, clearance divided by bioavailability, as obtained after extravascular dosing) in data set [19] was 90 mL/min/kg. Also, in data set [21], the bioavailability (in general, dose-corrected exposure relative to a reference, in per cent) amounted to 45.9%. Besides, in the data set with Mus musculus [26], the result was inactive.
On to `C=CCOC1=C(c2ccc(OCC=C)cc2)[C@](Cc2ccc(O)c(CC=C(C)C)c2)(C(=O)OC)OC1=O`, for which the inhibition at 50 µM in the data set on RBL-2H3 [1] is 8.95%.
Same read-out and setting: to `COC(=O)[C@]1(Cc2ccc(O)c(CC=C(C)C)c2)OC(=O)C(OC(C)=O)=C1c1ccc(O)cc1` belongs 33.5%; to `C=CCOC1=C(c2ccc(O)cc2)[C@](Cc2ccc(O)c(CC=C(C)C)c2)(C(=O)OC)OC1=O`, more than 90%.
Turning to `COC(=O)[C@]1(Cc2ccc(O)c(CC=C(C)C)c2)OC(=O)C(OC)=C1c1ccc(O)cc1`, the inhibition at 50 µM in the data set with RBL-2H3 [1] stood at 33.2%.
Still for that read-out and setting: to `COC(=O)[C@]1(Cc2ccc(O)c(CC=C(C)C)c2)OC(=O)C(OC(=O)C(C)C)=C1c1ccc(OC(=O)C(C)C)cc1` belongs 21.3%; to `COC(=O)[C@]1(Cc2ccc(OC(C)=O)c(CC=C(C)C)c2)OC(=O)C(OC(C)=O)=C1c1ccc(OC(C)=O)cc1`, 11.7%.
As for `COC(=O)[C@]1(Cc2ccc3c(c2)CCC(C)(C)O3)OC(=O)C(O)=C1c1ccc(O)cc1`, the inhibition at 50 µM in the data set with RBL-2H3 [1] was determined as 10.1%.
`C=CCOC1=C(c2ccc(OCC=C)cc2)[C@](Cc2ccc(OCC=C)c(CC=C(C)C)c2)(C(=O)OC)OC1=O`: the inhibition at 50 µM with RBL-2H3 [1] turned out to be 18.4%.
As for `COC(=O)[C@]1(Cc2ccc(O)c(CC=C(C)C)c2)OC(=O)C(O)=C1c1ccc(O)cc1`, the half-life was 17.5 min in data set [3]; 246 min in data set [8]; 282 min in data set [17]; 19.6 min in data set [24]; 17 min in [25]. In [5] (iv, 10 mg/kg, 12 h), this compound came in with a CL of 432.1 L/h/kg. In addition, the values for the AUC(0-inf) in data set [6] and in data set [10] were 36.9 ng·h/mL and 27.8 ng·h/mL, respectively. In addition, the AUC(0-t) at 12 h came to 28.9 ng·h/mL in data set [9] and 21.7 ng·h/mL in [23]. For the same compound, the IC50 with RBL-2H3 [2] came to 13.5 µM. Besides, the Cmax in [12] was found to be 10.8 ng/mL. The Tmax in [15] is 42 min. Moreover, in the data set with RBL-2H3 [1], the inhibition at 50 µM was more than 90%. The bioavailability in data set [21] was 33.2%.
Consider `CC(C)=CCc1cc(C[C@@]2(C=O)OC(=O)C(O)=C2c2ccc(O)cc2)ccc1O`, for which, in the data set on RBL-2H3 [1], the inhibition entry was “Active” and the inhibition at 50 µM is 63.9%.
